In ChEMBL document CHEMBL1201862, “PubChem BioAssay data set” (2004):
The source made the active and inactive calls.

What was measured:
[1] = target: Sentrin-specific protease 1 (Homo sapiens, UniProt Q9P0U3); test: Dose response confirmation of small molecule inhibitors of the catalytic domain of the SUMO protease, SENP1 in a FRET assay.; format: functional; settings: read-out: IC50_Mean
[2] = target: T1, Tyrosine-protein phosphatase non-receptor type 5 (Homo sapiens, UniProt P54829); test: STEP phosphatase inhibitors, confirmation, biochemical, fluorescence intensity, uHTS hits (AID 602372); format: functional; settings: read-out: IC50_Mean
T1 sequence (P54829 whole entry): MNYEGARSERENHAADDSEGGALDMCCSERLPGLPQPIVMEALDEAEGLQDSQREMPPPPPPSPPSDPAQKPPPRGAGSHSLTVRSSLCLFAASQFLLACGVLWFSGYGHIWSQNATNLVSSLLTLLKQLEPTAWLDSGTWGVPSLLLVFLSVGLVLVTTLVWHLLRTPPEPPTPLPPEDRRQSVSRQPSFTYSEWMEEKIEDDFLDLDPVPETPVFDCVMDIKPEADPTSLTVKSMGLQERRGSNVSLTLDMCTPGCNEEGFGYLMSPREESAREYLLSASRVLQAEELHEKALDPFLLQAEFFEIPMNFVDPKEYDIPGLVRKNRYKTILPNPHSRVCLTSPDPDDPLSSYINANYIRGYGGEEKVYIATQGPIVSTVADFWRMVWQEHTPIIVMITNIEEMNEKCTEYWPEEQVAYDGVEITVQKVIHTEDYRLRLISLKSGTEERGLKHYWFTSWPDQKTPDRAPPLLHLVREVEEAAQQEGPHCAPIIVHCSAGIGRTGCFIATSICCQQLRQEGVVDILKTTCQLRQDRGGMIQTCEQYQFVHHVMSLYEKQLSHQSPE

[3] = target: Low molecular weight phosphotyrosine protein phosphatase (Homo sapiens, UniProt P24666); format: functional; settings: read-out: IC50_Mean;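 note: Dose-response confirmation assay measuring inhibition of LMPTP enzyme activity by fluorescence intensity read-out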
[4] = target: T2, Tyrosine-protein phosphatase non-receptor type 22 (Homo sapiens, UniProt Q9Y2R2); test: PTPN22 phosphatase inhibition, dose response, selectivity assay for STEP inhibitor project, biochemical (AID 624241); format: functional
T2 sequence (Q9Y2R2 whole entry): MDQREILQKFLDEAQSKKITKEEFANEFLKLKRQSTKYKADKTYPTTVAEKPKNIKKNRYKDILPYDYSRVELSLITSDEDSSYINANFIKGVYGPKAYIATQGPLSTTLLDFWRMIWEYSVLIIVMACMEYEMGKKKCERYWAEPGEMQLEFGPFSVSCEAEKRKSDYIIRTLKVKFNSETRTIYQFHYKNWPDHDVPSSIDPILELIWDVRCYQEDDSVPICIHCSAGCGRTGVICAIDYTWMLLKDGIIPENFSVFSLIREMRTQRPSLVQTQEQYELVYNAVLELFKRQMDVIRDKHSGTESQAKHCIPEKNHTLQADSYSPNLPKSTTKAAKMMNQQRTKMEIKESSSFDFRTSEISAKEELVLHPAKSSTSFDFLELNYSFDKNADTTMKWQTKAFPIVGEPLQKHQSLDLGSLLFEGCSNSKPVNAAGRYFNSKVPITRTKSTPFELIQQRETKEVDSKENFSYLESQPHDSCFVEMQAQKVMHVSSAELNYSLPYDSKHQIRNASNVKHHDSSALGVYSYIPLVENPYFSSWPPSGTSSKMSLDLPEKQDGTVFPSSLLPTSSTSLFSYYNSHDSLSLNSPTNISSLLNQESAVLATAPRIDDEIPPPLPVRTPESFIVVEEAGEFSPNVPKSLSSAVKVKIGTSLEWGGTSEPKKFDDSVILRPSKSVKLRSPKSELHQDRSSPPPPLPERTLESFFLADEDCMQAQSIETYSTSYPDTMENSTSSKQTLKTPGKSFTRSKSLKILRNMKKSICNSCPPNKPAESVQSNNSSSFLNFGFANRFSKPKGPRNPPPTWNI

[5] = target: T3, Tyrosine-protein phosphatase non-receptor type 11 (Homo sapiens, UniProt Q06124); test: SHP2 phosphatase inhibition, dose response, selectivity assay for STEP inhibitor project, biochemical (AID 602367); format: functional; settings: read-out: IC50_Mean
T3 sequence (Q06124 whole entry): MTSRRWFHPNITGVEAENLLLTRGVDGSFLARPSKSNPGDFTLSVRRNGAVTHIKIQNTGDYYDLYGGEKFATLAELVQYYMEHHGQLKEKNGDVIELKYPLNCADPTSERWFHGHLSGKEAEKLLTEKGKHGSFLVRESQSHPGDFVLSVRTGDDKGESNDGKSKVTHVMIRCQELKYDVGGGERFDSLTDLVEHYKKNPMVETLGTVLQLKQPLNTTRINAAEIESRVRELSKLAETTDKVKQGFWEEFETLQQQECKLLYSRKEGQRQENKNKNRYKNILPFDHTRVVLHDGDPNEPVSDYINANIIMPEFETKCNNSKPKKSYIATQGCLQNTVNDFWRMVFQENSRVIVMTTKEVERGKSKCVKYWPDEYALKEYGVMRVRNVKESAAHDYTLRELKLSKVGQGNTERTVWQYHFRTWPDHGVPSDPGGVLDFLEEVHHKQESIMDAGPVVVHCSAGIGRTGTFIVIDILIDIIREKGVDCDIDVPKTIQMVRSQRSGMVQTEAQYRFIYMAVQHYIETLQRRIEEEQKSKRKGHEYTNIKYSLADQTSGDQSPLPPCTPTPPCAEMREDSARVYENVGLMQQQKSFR

[6] = target: Dual specificity protein phosphatase 3 (Homo sapiens, UniProt P51452); test: VHR phosphatase inhibition, dose response, selectivity assay for STEP inhibitor project, biochemical (AID 602374); format: functional; settings: read-out: IC50_Mean
[7] = target: ADP-ribosylation factor GTPase-activating protein 1 (Rattus norvegicus, UniProt Q62848); test: Fluorescence polarization-based biochemical high throughput dose response screening assay to identify inhibitors of ADP-ribosylation factor GTPase activating protein 1 (ARFGAP1).; format: functional
[8] = Luminescence Cell-Based Dose Response HTS to Identify Activators of Luciferase Translation or Activity in H4 […] Cells. [Related pubchem assays: 1829 (Project Summary), 1814 (Primary HTS)]; format: functional
[9] = test system: H4; test: Luminescence Cell-Based Dose Response HTS to Identify Activators of 5'UTR Stem-Loop Driven Prion Protein mRNA Translation in H4 Neuroglioblastoma Cells. [Related pubchem assays: 1829 (Project Summary), 1814 (Primary HTS)]; format: functional; settings: Homo sapiens
[10] = cells; format: functional, cell-based
[11] = Luminescence Cell-Based Dose Confirmation HTS to Identify Activators of 5'UTR Stem-Loop Driven Alpha-Synuclein mRNA Translation in H4 Neuroglioblastoma Cells. [Related pubchem assays: 1829 (Project Summary), 1814 (Primary HTS)]; format: functional
[12] = cells; format: functional, cell-based; remark: listed apart in the source
[13] = target: Mu-type opioid receptor (Homo sapiens, UniProt P35372); format: functional, cell-based;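 note: U2OS cells with beta-arrestin recruitment to OPRM1 by beta-gal complementation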
[14] = target: 5-hydroxytryptamine receptor 2A (Mus musculus, UniProt P35363); format: functional, cell-based;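 note: CHO-K1 cells with tagged receptor and beta-arrestin; agonist potency measured as compound-induced activation of the receptor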
5-hydroxytryptamine receptor 2A, sequence (P35363 whole entry): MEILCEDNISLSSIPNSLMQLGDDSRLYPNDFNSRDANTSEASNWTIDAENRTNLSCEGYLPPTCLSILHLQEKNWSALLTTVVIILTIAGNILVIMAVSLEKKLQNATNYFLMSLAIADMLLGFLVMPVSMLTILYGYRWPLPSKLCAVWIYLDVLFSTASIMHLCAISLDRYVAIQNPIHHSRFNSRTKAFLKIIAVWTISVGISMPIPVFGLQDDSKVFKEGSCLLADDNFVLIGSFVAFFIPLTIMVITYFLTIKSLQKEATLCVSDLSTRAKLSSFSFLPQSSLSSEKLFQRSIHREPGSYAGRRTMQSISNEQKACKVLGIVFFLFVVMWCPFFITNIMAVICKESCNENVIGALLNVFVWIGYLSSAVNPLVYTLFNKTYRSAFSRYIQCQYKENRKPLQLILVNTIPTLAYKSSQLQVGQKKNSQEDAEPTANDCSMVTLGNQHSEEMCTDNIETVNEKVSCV

Dual specificity protein phosphatase 3, sequence (P51452 whole entry): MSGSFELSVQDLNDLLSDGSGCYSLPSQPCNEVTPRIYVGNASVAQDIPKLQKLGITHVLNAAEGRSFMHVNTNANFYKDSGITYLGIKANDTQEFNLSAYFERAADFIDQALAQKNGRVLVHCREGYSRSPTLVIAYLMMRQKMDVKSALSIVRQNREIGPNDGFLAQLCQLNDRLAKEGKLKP
ADP-ribosylation factor GTPase-activating protein 1, sequence (Q62848 whole entry): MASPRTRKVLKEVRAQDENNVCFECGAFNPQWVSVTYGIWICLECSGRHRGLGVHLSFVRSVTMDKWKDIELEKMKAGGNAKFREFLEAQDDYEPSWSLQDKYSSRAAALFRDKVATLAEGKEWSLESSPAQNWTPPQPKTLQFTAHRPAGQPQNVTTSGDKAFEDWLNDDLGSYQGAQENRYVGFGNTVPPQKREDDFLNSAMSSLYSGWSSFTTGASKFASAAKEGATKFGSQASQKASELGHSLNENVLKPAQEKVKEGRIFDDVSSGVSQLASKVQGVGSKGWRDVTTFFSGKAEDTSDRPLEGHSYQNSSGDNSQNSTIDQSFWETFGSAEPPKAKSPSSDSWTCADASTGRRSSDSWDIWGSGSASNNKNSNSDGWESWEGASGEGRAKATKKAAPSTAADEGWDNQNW
Sentrin-specific protease 1, sequence (Q9P0U3 whole entry, the tested form may be a part): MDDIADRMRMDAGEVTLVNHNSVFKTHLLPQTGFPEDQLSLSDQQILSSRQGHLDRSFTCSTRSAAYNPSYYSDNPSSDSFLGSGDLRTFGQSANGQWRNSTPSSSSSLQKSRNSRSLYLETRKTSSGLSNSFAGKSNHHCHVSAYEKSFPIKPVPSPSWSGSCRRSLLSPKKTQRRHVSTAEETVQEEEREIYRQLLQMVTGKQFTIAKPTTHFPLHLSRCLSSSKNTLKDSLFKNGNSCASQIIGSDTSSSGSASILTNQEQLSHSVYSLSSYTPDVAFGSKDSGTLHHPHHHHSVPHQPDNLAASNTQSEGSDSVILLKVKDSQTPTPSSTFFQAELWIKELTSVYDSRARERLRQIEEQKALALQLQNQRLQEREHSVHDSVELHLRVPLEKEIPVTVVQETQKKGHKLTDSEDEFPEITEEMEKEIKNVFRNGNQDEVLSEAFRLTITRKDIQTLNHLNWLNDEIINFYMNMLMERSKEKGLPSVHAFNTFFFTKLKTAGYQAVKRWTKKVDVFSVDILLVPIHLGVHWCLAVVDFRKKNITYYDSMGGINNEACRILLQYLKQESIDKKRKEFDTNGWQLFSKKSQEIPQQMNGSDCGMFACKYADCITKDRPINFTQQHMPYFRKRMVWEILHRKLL
Mu-type opioid receptor, sequence (P35372 whole entry): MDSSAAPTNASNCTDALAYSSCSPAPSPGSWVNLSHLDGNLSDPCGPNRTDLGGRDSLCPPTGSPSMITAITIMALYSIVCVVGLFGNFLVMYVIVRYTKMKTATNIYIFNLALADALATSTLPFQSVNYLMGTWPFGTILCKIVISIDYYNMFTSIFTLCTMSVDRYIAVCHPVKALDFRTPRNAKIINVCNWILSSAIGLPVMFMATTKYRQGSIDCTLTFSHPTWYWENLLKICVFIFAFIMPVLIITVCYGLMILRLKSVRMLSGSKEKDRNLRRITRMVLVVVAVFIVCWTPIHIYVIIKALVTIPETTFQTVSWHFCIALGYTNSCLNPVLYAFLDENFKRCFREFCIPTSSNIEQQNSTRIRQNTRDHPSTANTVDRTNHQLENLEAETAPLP
Low molecular weight phosphotyrosine protein phosphatase, sequence (P24666 whole entry): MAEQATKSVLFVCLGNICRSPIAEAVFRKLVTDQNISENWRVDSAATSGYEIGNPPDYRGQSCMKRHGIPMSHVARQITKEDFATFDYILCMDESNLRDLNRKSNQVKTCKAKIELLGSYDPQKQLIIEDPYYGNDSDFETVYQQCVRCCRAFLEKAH

In the case of COc1ccc(OC)c(CCNC(=O)c2ccc3c(=O)[nH]c4c(C(=O)NC(C)C)sc(=S)n4c3c2)c1, the IC50 [1] is reported as 20.9 µM (inactive).
With O=C(/C=C/c1ccc(Cl)cc1)NC(=S)Nc1ccc(C(=O)O)cc1 the IC50 [2] was 9.21 µM (active), the IC50 [3] was 15.4 µM (active) and the IC50 [4] was 44.2 µM (inactive). For the same compound, the IC50 [5] was 5.89 µM (active) and the IC50 [6] was 5.4 µM (active).
With Cc1ccc2nc(SCC(=O)c3ccccc3)nc(=O)n2c1 the IC50 [7] was 52.5 µM (inactive), the EC50 [8] was 11 µM (active) and the EC50 [9] was 24 µM (active). The EC50 [10] was > 350 µM (not active), the EC50 [11] was 33.8 µM (active) and the EC50 [12] was 37.8 µM (active).
For COc1cccc(OCC(O)CN2CCN(c3ccccn3)CC2)c1 (centres undefined), the EC50 [13] was 92.4 µM (inactive) and the EC50 [14] was 1.46 µM (active).
